For one data set, the system named is caspase 8. Description: Caspase 8 ELISA in cell lysates. In kind it is cell-based, human. Conditions: HuTu 80 lysates, relative to the control. How it is done:
In vitro quantitative measurement of caspase-9 and caspase-8 was performed using ELISA kits (ELISA Kit for Caspase 9 and ELISA Kit for Caspase 8, Human Cloud-Clone Corp., Wuhan, China). The analysis was carried out according to the manufacturer’s instructions. Samples were standardized for total protein content (1 mg/mL). Protein concentration was determined with Coomassie-based assays using Bredford Dye Reagent (Bio-Rad, Hercules, CA, USA). The absorbance was measured using a microplate reader, EPOCH (BioTek Instruments, Inc., Winooski, VT, USA), at a wavelength of 450 ± 10 nm. Lysates of untreated HuTu 80 cells were used as controls.
To confirm that apoptosis induced by compounds 4b, 5b, 6a, and 8 proceeds along the internal (mitochondrial) pathway, studies were conducted to determine the enzymatic activity of the early apoptosis key markers—caspase 9 and caspase 8 using ELISA kits. The kits are sandwich enzyme immunoassays for in vitro quantitative measurement of Caspase 8 and Caspase 9 in cell lysates, rat tissue homogenates, and other biological fluids. Caspase 9 plays a key role in the mitochondrial signaling pathway of apoptosis induction. The activation of caspase 8 characterizes the external (receptor-dependent) pathway of apoptosis. HuTu 80 cells not treated with the tested compounds were used as a control.

A short description of data set [1]: In vivo acute toxicity, single intraperitoneal injection. On the set-up: species or system mice. The conditions noted are these: male, CD-1, mouse, in vivo, ip, male CD-1 mice, single intraperitoneal administration, 14 days, Probit analysis. How it is done:
(§1) The study of acute toxicity was performed on males of outbred white mice of the CD-1 line at the age of 2–3 months, weighing 20–30 g. The total number of mice participating in the experiment was 300. Mice were obtained from the Research and Production Enterprise Laboratory Animal Farm based at the Branch of Shemyakin and Ovchinnikov Institute of Bioorganic Chemistry of the Russian Academy of Sciences (Pushchino, Russia). The animals were kept in accordance with in standard conditions in a vivarium with 12 h of daylight and free access to food and water. The animals were fed complete feed made according to specifications (protein 22%, fiber 4% max., fat 5% max, ash 9% max, humidity 13.5% max, caloric value 295 kcal/100 g). The studies were conducted with a single parenteral–intraperitoneal (intra-peritoneal) injection, according to the method.
(§2) The substances were introduced in a sterile saline DMSO (40% vol.) solution. Solutions of the substances were prepared immediately before administration. The total volume of the injected liquid was 0.1 mL/10 g of animal weight. As a control, a group of mice was administered under similar conditions an equivalent amount (0.1 mL/10 g, or 10 mL/kg) of a solvent—40% DMSO on sterile saline solution. The substances were administered in doses ranging from 1 to 100 mg/kg; there were six animals in each group. To assess acute toxicity, the animals were monitored 14 days after administration of the substance, assessing their general condition and recording deaths.
(§3) The study of the acute toxicity parameters of six aminophosphonium salts 4a, 4b, 4d, 5a, 5b, and 6b was performed on male outbreed white mice of the CD-1 line. Acute toxicity was determined with a single parenteral (intraperitoneal) administration in sterile saline/DMSO (40% vol.) solution at doses from 1 to 100 mg/kg. To assess acute toxicity, the animals were monitored for 14 days after the introduction of substances, assessing their general condition and recording deaths. Next, lethal doses LD50, LD0, LD16, LD84, and LD100 were calculated using the Probit analysis method. LD0, LD16, LD84, and LD100 are given in Supplementary Material (Table S1).

A further data set has as its system mice of the CD-1 line. The description is as above. Conditions: for onset of animal death after administration: doses of LD100; for acute toxicity class: according to the classification [105], parenteral administration. The method, then: as §1, §2, §3

Take `CCCCCCCC[P+](N(CC)CC)(N(CC)CC)N(CC)CC` [4b, Tris(diethylamino)(octyl)phosphonium iodide]: in the data set with caspase 8, the “concentration of caspase 8 (in words)” value was “significantly decreased”. For the same compound, the LD50 at 14 days in data set [1] came out at 43.4 mg/kg. Moreover, the “onset of animal death after administration” value (“onset of animal death” below) in the data set with mice of the CD-1 line (CD-1 mice, i.p.) was 1 to 2 h. For the same compound, the acute toxicity class entry in the data set with mice of the CD-1 line is listed as “moderately toxic”.
In data set [1], `CCCCCCCCCC[P+](N(CC)CC)(N(CC)CC)N(CC)CC` [4d, Decyltris(diethylamino)phosphonium iodide] had an LD50 at 14 days of 6.9 mg/kg. Besides, the “onset of animal death” value in the data set with mice of the CD-1 line (CD-1 mice, i.p.) lay within 1 to 2 h. Besides, the acute toxicity class result with mice of the CD-1 line is “highly toxic”. In addition, in the data set on mice of the CD-1 line (male CD-1 mice, single intraperitoneal administration, 14 days, Probit analysis), the LD50 is 5.9 (3.7÷7.6) mg/kg.
Turning to `CCCCCCCC[P+](c1ccccc1)(N(CC)CC)N(CC)CC` [5b, Bis(diethylamino)(octyl)(phenyl)phosphonium iodide], the “concentration of caspase 8 (in words)” value in the data set with caspase 8 was “significantly decreased”. For the same compound, the LD50 at 14 days in data set [1] is 27.9 mg/kg. Besides, the “onset of animal death” value in the data set with mice of the CD-1 line (CD-1 mice, i.p.) lay within 1 to 2 h. Moreover, the acute toxicity class entry with mice of the CD-1 line is “moderately toxic”.
Turning to `CCCCCCCC[P+](c1ccccc1)(c1ccccc1)N(CC)CC` [6b, (Diethylamino)(octyl)diphenylphosphonium iodide], in data set [1], the LD50 at 14 days amounted to 102 mg/kg. This compound registered a death in animals with mice of the CD-1 line (CD-1 mice, i.p., dose of 150 mg/kg) of 100%. The same compound came in with a time to death with mice of the CD-1 line (CD-1 mice, i.p., doses of 200 and 400 mg/kg) not above 10 min. Further, in the data set with mice of the CD-1 line, the acute toxicity class result is on record as “moderately toxic”.
